{"source": "patent US7256286B2", "about": "“Bryostatin analogues, synthetic methods and uses” (The Board of Trustees of the Leland Stanford Junior …, priority 1999, dated 2007)", "key": {"PKCδ-C1B": {"target": "T1, PKCδ-C1B (Mus musculus, UniProt P28867)", "T1 construct": "made in house", "T1 sequence (P28867 231-281 limits assumed)": "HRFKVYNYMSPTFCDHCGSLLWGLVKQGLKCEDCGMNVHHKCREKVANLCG", "experiment": "PKCδ-C1B assay", "type": "binding", "experimental": "Phosphatidyl serine vesicles are prepared by the addition of phosphatidyl serine (10 mg/mL in chloroform, 0.4 mL) to a glass test tube followed by removal of the chloroform under a stream of nitrogen (5 min). […] The resulting solution is stored over ice. […] Stock solutions of compounds are diluted with absolute ethanol in glass in serial fashion. […] The tubes are incubated at 37° C. for 90 min. and then put on ice for 5 min. Each tube is then filtered separately through a pre-soaked filter disc. […] The filter is subsequently rinsed with cold 20 mM TRIS buffer (5 mL) dropwise. […] The filters are immediately counted in a scintillation counter (Beckman LS 6000SC). Counts per minute are averaged among three trials at each concentration."}, "P388 cell line": {"tested_on": "P388 cell line", "experiment": "P388 murine lymphocytic leukemia cell assay", "type": "cell-based", "experimental": "Cells from a P388 cell line (CellGate, Inc., Sunnyvale, Calif.) are grown in RPMI 1640 cell medium containing fetal calf serum (10%), L-glutamine, penicillin, streptomycin and are split twice weekly. All compounds are first diluted with DMSO. Later serial dilutions are done with a phosphate buffer solution (HYQ DPBS modified phosphate buffered saline). All dilutions are done in glass vials and the final DMSO concentration is always below 0.5% by volume. Final two-fold dilutions are done in a 96 well plate using cell media so that each well contains 50 μL. All compounds are assayed in quadruplicate over 12 concentrations. Cell concentration is measured using a hemacytometer and the final cell concentration is adjusted to 1×10^4 cells/mL with cell medium. The resulting solution of cells (50 μL) is then added to each well and the plates are incubated for 5 days in a 37° C., 5% CO2, humidified incubator (Sanyo CO2 incubator). MTT solution (3-[4,5-dimethylthiazol-2-yl]-2,5-diphenyltetrazolium bromide, 10 μL) is then added to each well and the plates are re-incubated under identical conditions for 2 h. To each well is then added acidified isopropanol (150 μL of i-PrOH solution containing 0.05 N HCl) and mixed thoroughly. The plates are then scanned at 595 nm and the absorbances are read (Wallac Victor 1420 Multilabel Counter). The resulting data is then analyzed to determine an ED50 value using the Prism software package (GraphPad)."}, "CCRF-CEM": {"tested_on": "CCRF-CEM", "experiment": "NCI human cancer cell line growth inhibition: CCRF-CEM", "type": "cell-based", "conditions": "Leukemia"}, "HL-60(TB)": {"tested_on": "HL-60(TB)", "experiment": "cells", "type": "cell-based, human"}, "K-562": {"tested_on": "K-562", "experiment": "NCI human cancer cell line growth inhibition: K-562", "type": "cell-based", "conditions": "K-562, Leukemia"}, "RPMI-8226": {"tested_on": "RPMI-8226", "experiment": "NCI human cancer cell line growth inhibition: RPMI-8226", "type": "cell-based", "conditions": "RPMI-8226, Leukemia"}, "SR": {"tested_on": "SR", "experiment": "NCI human cancer cell line growth inhibition: SR", "type": "cell-based", "conditions": "Leukemia"}, "EKVX": {"tested_on": "EKVX", "experiment": "NCI human cancer cell line growth inhibition: EKVX", "type": "cell-based", "conditions": "NSC Lung"}, "HOP-92": {"tested_on": "HOP-92", "experiment": "NCI human cancer cell line growth inhibition: HOP-92", "type": "cell-based", "conditions": "HOP-92, NSC Lung"}, "NCI-H460": {"tested_on": "NCI-H460", "type": "cell-based, human", "conditions": "NCI-H460, NSC Lung"}, "HT29": {"tested_on": "HT29", "experiment": "NCI human cancer cell line growth inhibition: HT29", "type": "cell-based", "conditions": "HT29, Colon"}, "SNB-19": {"tested_on": "SNB-19", "experiment": "NCI human cancer cell line growth inhibition: SNB-19", "type": "cell-based", "conditions": "SNB-19, CNS"}, "SNB-75": {"tested_on": "SNB-75", "experiment": "NCI human cancer cell line growth inhibition: SNB-75", "type": "cell-based", "conditions": "SNB-75, CNS"}, "PC-3": {"tested_on": "PC-3", "experiment": "NCI human cancer cell line growth inhibition: PC-3", "type": "cell-based", "conditions": "PC-3, Prostate"}, "DU-145": {"tested_on": "DU-145", "experiment": "NCI human cancer cell line growth inhibition: DU-145", "type": "cell-based", "conditions": "DU-145, Prostate"}, "SK-MEL-28": {"tested_on": "SK-MEL-28", "experiment": "NCI human cancer cell line growth inhibition: SK-MEL-28", "type": "cell-based", "conditions": "SK-MEL-28, Melanoma"}, "SK-MEL-5": {"tested_on": "SK-MEL-5", "experiment": "NCI human cancer cell line growth inhibition: SK-MEL-5", "type": "cell-based", "conditions": "SK-MEL-5, Melanoma"}, "UACC-257": {"tested_on": "UACC-257", "experiment": "NCI human cancer cell line growth inhibition: UACC-257", "type": "cell-based", "conditions": "UACC-257, Melanoma"}, "UACC-62": {"tested_on": "UACC-62", "experiment": "NCI human cancer cell line growth inhibition: UACC-62", "type": "cell-based", "conditions": "UACC-62, Melanoma"}, "IGROVI": {"tested_on": "IGROVI", "experiment": "NCI human cancer cell line growth inhibition: IGROVI", "type": "cell-based", "conditions": "Ovarian"}, "SK-OV-3": {"tested_on": "SK-OV-3", "experiment": "NCI human cancer cell line growth inhibition: SK-OV-3", "type": "cell-based", "conditions": "SK-OV-3, Ovarian"}, "A498": {"tested_on": "A498", "experiment": "NCI human cancer cell line growth inhibition: A498", "type": "cell-based", "conditions": "A498, Renal"}, "TK-10": {"tested_on": "TK-10", "experiment": "NCI human cancer cell line growth inhibition: TK-10", "type": "cell-based", "conditions": "TK-10, Renal"}, "UO-31": {"tested_on": "UO-31", "experiment": "NCI human cancer cell line growth inhibition: UO-31", "type": "cell-based", "conditions": "UO-31, Renal"}, "MCF7": {"tested_on": "MCF7", "experiment": "NCI human cancer cell line growth inhibition: MCF7", "type": "cell-based", "conditions": "MCF7, Breast"}, "NCI/ADR-RES": {"tested_on": "NCI/ADR-RES", "type": "cell-based, human", "conditions": "Homo sapiens, Breast, read-out: Growth inhibition (GI50) (converted)"}, "[1]": {"conditions": "702.1 vs corresponding C26 methyl-containing analogue, 48, 49 among C20 ester analogues"}}, "data": [{"smiles": "CCCCCCCC(=O)O[C@H]1/C(=C/C(=O)OC)C[C@H]2C[C@H](CO)OC(=O)C[C@H](O)C[C@@H]3CCCC(CC4CCO[C@H](/C=C/C(C)(C)[C@]1(O)O2)O4)O3", "note": "[Formula IIa (702.1)]", "values": [{"measurement": "Ki", "setting": "PKCδ-C1B", "value": "0.0003 ± 7e-05", "unit": "µM"}, {"measurement": "activity in PKCδ-C1B assay compared with other analogues", "setting": "PKCδ-C1B; [1]", "value": "significantly higher activity"}, {"measurement": "activity in P388 assay compared with other analogues", "setting": "P388 cell line; [1]", "value": "significantly higher activity"}, {"measurement": "EC50", "setting": "P388 cell line; Mus musculus, P388, 120 h, 5 days incubation, MTT, read-out: P388 Assay ED50", "value": 0.017, "unit": "µM"}, {"measurement": "GI50", "setting": "CCRF-CEM; Homo sapiens", "value": 1.55, "unit": "µM"}, {"measurement": "Difference (GI50 desmethyl vs Bryo-1)", "setting": "CCRF-CEM", "value": "−0.51"}, {"measurement": "Difference (GI50 desmethyl vs Bryo-1)", "setting": "HL-60(TB)", "value": "−0.14"}, {"measurement": "GI50", "setting": "HL-60(TB); Homo sapiens, HL-60, read-out: Growth inhibition (GI50)", "value": 1.45, "unit": "µM"}, {"measurement": "GI50", "setting": "K-562; Homo sapiens, K562", "value": 0.0316, "unit": "µM"}, {"measurement": "Difference (GI50 desmethyl vs Bryo-1)", "setting": "K-562", "value": "−2.10"}, {"measurement": "more active than bryostatin-1 by", "setting": "K-562", "value": "more than 2 orders of magnitude"}, {"measurement": "GI50", "setting": "RPMI-8226; Homo sapiens", "value": 1.51, "unit": "µM"}, {"measurement": "Difference (GI50 desmethyl vs Bryo-1)", "setting": "RPMI-8226", "value": "−0.82"}, {"measurement": "GI50", "setting": "SR; Homo sapiens", "value": 7.94, "unit": "µM"}, {"measurement": "Difference (GI50 desmethyl vs Bryo-1)", "setting": "SR", "value": "−0.10"}, {"measurement": "GI50", "setting": "EKVX; Homo sapiens", "value": 2.63, "unit": "µM"}, {"measurement": "Difference (GI50 desmethyl vs Bryo-1)", "setting": "EKVX", "value": "−0.28"}, {"measurement": "Difference (GI50 desmethyl vs Bryo-1)", "setting": "HOP-92", "value": 0.63}, {"measurement": "GI50", "setting": "HOP-92; Homo sapiens", "value": 21.4, "unit": "µM"}, {"measurement": "GI50", "setting": "NCI-H460; Homo sapiens, read-out: Growth inhibition (GI50)", "value": "< 0.01", "unit": "µM"}, {"measurement": "Difference (GI50 desmethyl vs Bryo-1)", "setting": "NCI-H460", "value": "−2.40"}, {"measurement": "more active than bryostatin-1 by", "setting": "NCI-H460", "value": "more than 2 orders of magnitude"}, {"measurement": "Difference (GI50 desmethyl vs Bryo-1)", "setting": "HT29", "value": "−0.25"}, {"measurement": "GI50", "setting": "HT29; Homo sapiens, HT-29", "value": 2.82, "unit": "µM"}, {"measurement": "GI50", "setting": "SNB-19; Homo sapiens", "value": 6.31, "unit": "µM"}, {"measurement": "Difference (GI50 desmethyl vs Bryo-1)", "setting": "SNB-19", "value": "−0.20"}, {"measurement": "GI50", "setting": "SNB-75; Homo sapiens", "value": 10.7, "unit": "µM"}, {"measurement": "Difference (GI50 desmethyl vs Bryo-1)", "setting": "SNB-75", "value": 0.53}, {"measurement": "GI50", "setting": "PC-3; Homo sapiens", "value": 2.51, "unit": "µM"}, {"measurement": "Difference (GI50 desmethyl vs Bryo-1)", "setting": "PC-3", "value": "−0.30"}, {"measurement": "Difference (GI50 desmethyl vs Bryo-1)", "setting": "DU-145", "value": "−0.02"}, {"measurement": "GI50", "setting": "DU-145; Homo sapiens", "value": 9.55, "unit": "µM"}, {"measurement": "GI50", "setting": "SK-MEL-28; Homo sapiens", "value": 21.4, "unit": "µM"}, {"measurement": "Difference (GI50 desmethyl vs Bryo-1)", "setting": "SK-MEL-28", "value": 0.43}, {"measurement": "GI50", "setting": "SK-MEL-5; Homo sapiens", "value": 0.372, "unit": "µM"}, {"measurement": "Difference (GI50 desmethyl vs Bryo-1)", "setting": "SK-MEL-5", "value": "−0.73"}, {"measurement": "GI50", "setting": "UACC-257; Homo sapiens", "value": 7.41, "unit": "µM"}, {"measurement": "Difference (GI50 desmethyl vs Bryo-1)", "setting": "UACC-257", "value": "−0.03"}, {"measurement": "GI50", "setting": "UACC-62; Homo sapiens", "value": 7.76, "unit": "µM"}, {"measurement": "Difference (GI50 desmethyl vs Bryo-1)", "setting": "UACC-62", "value": 0.19}, {"measurement": "GI50", "setting": "IGROVI; Homo sapiens", "value": 13.2, "unit": "µM"}, {"measurement": "Difference (GI50 desmethyl vs Bryo-1)", "setting": "IGROVI", "value": 0.42}, {"measurement": "GI50", "setting": "SK-OV-3; Homo sapiens", "value": 50.1, "unit": "µM"}, {"measurement": "Difference (GI50 desmethyl vs Bryo-1)", "setting": "SK-OV-3", "value": 0.80}, {"measurement": "Difference (GI50 desmethyl vs Bryo-1)", "setting": "A498", "value": "−1.38"}, {"measurement": "GI50", "setting": "A498; Homo sapiens", "value": 0.417, "unit": "µM"}, {"measurement": "GI50", "setting": "TK-10; Homo sapiens", "value": 0.0933, "unit": "µM"}, {"measurement": "Difference (GI50 desmethyl vs Bryo-1)", "setting": "TK-10", "value": "−2.03"}, {"measurement": "more active than bryostatin-1 by", "setting": "TK-10", "value": "more than 2 orders of magnitude"}, {"measurement": "GI50", "setting": "UO-31; Homo sapiens", "value": 14.1, "unit": "µM"}, {"measurement": "Difference (GI50 desmethyl vs Bryo-1)", "setting": "UO-31", "value": 0.75}, {"measurement": "GI50", "setting": "MCF7; Homo sapiens", "value": 3.98, "unit": "µM"}, {"measurement": "Difference (GI50 desmethyl vs Bryo-1)", "setting": "MCF7", "value": "−0.20"}, {"measurement": "GI50", "setting": "NCI/ADR-RES", "value": 18.2, "unit": "µM"}]}]}
